A short description of data set [1]: Preliminary study of oral bioavailability in four volunteers. The format is in vivo. The note with it: humans.
The nature of data set [2]: Phase I clinical trials, plasma concentration after oral administration. The format is in vivo, human. The following applies: oral administration of the 20 mg/day dose. The procedure: Fourteen healthy young volunteers were orally administered 20 mg/day of compound 2 for 28 days in two Phase I clinical trials. 34 patients with mild to moderate cognitive disturbance were orally administered doses of up to 30 mg/day of compound 2 for 28 days.
After oral administration of the 20 mg/day dose, peak plasma concentrations of 25-38 ng/mL were observed 15-30 minutes after dosing.

Data set [3] deals with patients with cognitive disturbances secondary to cerebrovascular and traumatic brain injury. The data set is described as follows: Four-week open-label Phase II clinical trial of efficacy (MMSE, OCS, CCSE). Format: in vivo, human. The note with it: 10 mg orally t.i.d. for four weeks, 20 patients with mild cognitive disturbance. As to the method:
The efficacy of 10 mg of compound 2 administered orally t.i.d. was investigated in a four-week open-label Phase II clinical trial at two centers. A total of 20 patients with cognitive disturbances secondary to cerebrovascular and traumatic brain injury were orally administered compound 2 during a Phase II clinical trial at a dose of 10 mg t.i.d. for a period of four weeks. At study entry, patients fulfilled specific criteria for mild cognitive disturbance.
Improvement on several tests, including the Mini Mental State Evaluation (MMSE) (Folstein et al., Psychiatric Research, 12, 189-198 (1975)), the Overall Clinical Impression Scale (OCS), which is a system developed by the National Institute of Mental Health: 12-CGI Clinical Global Impression ECDEU Assessment Manual for Psychopharmacology, E. Guyo, ed., Rockville Md., (217-222) (1976), and the Cognitive Capacity Screening Exam (CCSE) (Jacobs et al., Annals of Internal Medicine, 86, 40-46 (1977).

Each structure is given as a SMILES string. Square brackets hold non-standard residues; d marks the D form. Peptide text beside a SMILES is read from it. * marks the point of attachment. ξ: configuration not given here. PhAc = O=C(Cc1ccccc1)*; ξP = O=C(O)C1CCCN1

Turning to `CCOC(=O)CNC(=O)C1CCCN1C(=O)Cc1ccccc1` (stereo not shown) [compound 2] (PhAc-[ξP]-Gly-OEt), in data set [1], the oral bioavailability result is on record as “orally bioavailable”. Also, in data set [2], the peak plasma concentrations was 25 to 38 ng/mL and the “time of peak plasma concentrations after dosing” value lay in the range of 15 to 30 min. Also, the “treated patients who met the definition of efficacy response (statistically measured improvement in one or more of the tests by the end of the study)” value in data set [3] was “over 75%”.

Source of the values: patent US20020187977A1, “Methods for restoring cognitive function following systemic stress” (priority 2001, published 2002).
